Source: patent US20240398831A1, “COMPOSITIONS COMPRISING SMALL MOLECULE REGULATORS OF TUMOR IMMUNITY AND METHODS OF USING SAME” (Duke University, priority 2021, published 2024)

Tested on: CD68+ monocytes/TAMs
Assay: Single cell RNA sequencing of tumor infiltrating immune cells from iBP tumors
Type: in vivo, mouse
Text: Single Cell RNA sequencing. iBP tumors (three) were pooled and a single cell suspension was isolated. Live tumor infiltrating immune cells (CD45^+ L/D^−) were isolated by cell sorting and resuspended in PBS+0.04% BSA at a concentration of 1000 cells/μL. In total, 10,000 cells were loaded on the 10× Genomics Chromium Controller Single-Cell Instrument (10× Genomics) mixed with reverse transcription reagents along with gel beads and oil to generate single-cell gel beads in emulsions (GEMs). GEM-RT was performed in an Eppendorf Mastercycler Pro (cat #950030020, Eppendorf): 53° C. for 45 min; 85° C. for 5 min; then held at 4° C. After reverse transcription, GEMs were disrupted and the single-stranded cDNA was purified using Dynabeads MyOne Silane beads (cat #37002D, Thermo Fisher Scientific). cDNA was amplified using the Eppendorf Mastercycler Pro (cat #950030020, Eppendorf): 98° C. for 3 min; cycled 11×: 98° C. for 15 s, 67° C. for 20 s, and 72° C. for 1 min; 72° C. for 1 min; held at 4° C. The amplified cDNA product was purified with the SPRIselect Reagent Kit (0.6×SPRI) (cat #B23318, Beckman Coulter). Indexed sequencing libraries were constructed using the reagents in the Chromium Single-Cell 3′ version 3 Library Kit, following these steps: (1) fragmentation, end repair and A-tailing; (2) SPRIselect cleanup; (3) adapter ligation; (4) post ligation cleanup with SPRIselect; (5) sample index PCR; (6) PostindexPCR cleanup. The barcoded sequencing libraries were analyzed using quantitative PCR (cat #KK4824, KAPA Biosystems Library Quantification Kit for Illumina platforms). Sequencing libraries were transferred to the Duke University Center for Genomic and Computational Biology (GCB) and were loaded on a NovaSeq6000 (Illumina) for sequencing.
scRNA seq data analysis. Sequencing data was de-multiplexed, trimmed, filtered, aligned, and quantified using the Cell Ranger pipeline (10× Genomics). Reads were aligned to CSC mm10 transcriptome and UMI count matrices for each sample was obtained. The Seurat v3.1 package was used to count matrices. For each sample, cells that express <200 or >2000 genes and cells that express >5% of mitochondrial genes were removed. Highly variable genes were identified and used for principal component analysis. Cell subpopulations were identified using the ‘FindNeighbors’ function with first 30 PCs and ‘FindClusters’ function from Seurat R package with default resolution parameters. Cells were then clustered and visualized using uniform manifold approximation and projection (UMAP) (Liu, Int. J. Mol. Sci. 2020, 21, 16). DE Wilcoxon test analysis was used to identify genes that define a cluster using known cell type signatures and genes that differ within clusters between treatments.
Pseudotime Analysis. To infer the developmental trajectories in the monocyte/macrophage lineages, Monocle3 was used to perform the pseudotime analysis where UMAP coordinates from Seurat were used as input (Cao et al., Nature 2019, 566, 498-502). The graphtest function implemented in Monocle3 was used to find genes that vary with pseudotime where genes with q<0.01 were identified as pseudotime-dependent genes. Cells were divided into four pseudotime blocks (e.g., 0-5, 5-10, 10-15, and 15-21) based on their pseudotime estimate.

[1] = CD68+ cells, Genes down-regulated upon E2 treatment
[2] = CD68+ cells, Genes up-regulated upon E2 treatment

## 17β-estradiol [E2]
[1]
  AA467197 avg_logFC: −1.1474
  Actg1 avg_logFC: −0.2725
  Adam8 avg_logFC: −0.5315
  Arg1 avg_logFC: −1.491
  Arl4c avg_logFC: −0.3255
  Ass1 avg_logFC: −0.2981
  B4galt1 avg_logFC: −0.2593
  Bhlhe40 avg_logFC: −0.4214
  Bnip3 avg_logFC: −0.3241
  Cbl avg_logFC: −0.2587
  Ccl24 avg_logFC: −1.196
  Cd44 avg_logFC: −0.3636
  Cd53 avg_logFC: −0.2831
  Cdh1 avg_logFC: −0.4682
  Cish avg_logFC: −0.2878
  Clec7a avg_logFC: −0.6823
  Clic4 avg_logFC: −0.2836
  Cox17 avg_logFC: −0.2516
  Csrnp1 avg_logFC: −0.2796
  Cxcl2 avg_logFC: −0.3108
  Dazap2 avg_logFC: −0.253
  Ddx3x avg_logFC: −0.2648
  Dusp5 avg_logFC: −0.2644
  Emp1 avg_logFC: −0.3016
  Epb41l2 avg_logFC: −0.2668
  Ero1l avg_logFC: −0.3681
  Errfi1 avg_logFC: −0.2612
  Etv3 avg_logFC: −0.2533
  Fam129b avg_logFC: −0.2732
  Gatm avg_logFC: −0.4728
  Gm13339 avg_logFC: −0.3235
  Gm42418 avg_logFC: −0.3099
  Grina avg_logFC: −0.2527
  Havcr2 avg_logFC: −0.2738
  Hbegf avg_logFC: −0.2883
  Hexim1 avg_logFC: −0.2598
  Hif1a avg_logFC: −0.3016
  Hilpda avg_logFC: −0.3818
  Hk2 avg_logFC: −0.3161
  Hnrnpa2b1 avg_logFC: −0.2507
  Hnrnpu avg_logFC: −0.2502
  Id2 avg_logFC: −0.3235
  Ifi202b avg_logFC: −0.4589
  Ighm avg_logFC: −0.2694
  Il1rn avg_logFC: −0.7087
  Itgax avg_logFC: −0.2718
  Jak2 avg_logFC: −0.3294
  Lars2 avg_logFC: −0.2737
  Lcp1 avg_logFC: −0.279
  Lyz1 avg_logFC: −0.3109
  Mafb avg_logFC: −0.2732
  Malt1 avg_logFC: −0.4497
  Mir6236 avg_logFC: −0.4795
  Mmp14 avg_logFC: −0.4234
  N4bp1 avg_logFC: −0.2723
  Nampt avg_logFC: −0.2539
  Nfkb1 avg_logFC: −0.3187
  Pabpc1 avg_logFC: −0.3065
  Plek avg_logFC: −0.3121
  Prkcd avg_logFC: −0.4952
  Ptgs2 avg_logFC: −0.2589
  Qsox1 avg_logFC: −0.2981
  Rbbp6 avg_logFC: −0.2693
  Rbms1 avg_logFC: −0.306
  Rbpj avg_logFC: −0.2858
  Retnla avg_logFC: −1.013
  Rgcc avg_logFC: −0.3356
  Rhob avg_logFC: −0.3443
  Rnf19b avg_logFC: −0.4071
  Rpl23a avg_logFC: −0.3395
  Scd2 avg_logFC: −0.3267
  Sdc4 avg_logFC: −0.5729
  Slc2a1 avg_logFC: −0.2726
  Slc7a2 avg_logFC: −0.4582
  Slc7a11 avg_logFC: −0.3846
  Slpi avg_logFC: −0.3695
  Smox avg_logFC: −0.2743
  Spp1 avg_logFC: −0.5367
  Srgn avg_logFC: −0.3751
  Tapbp avg_logFC: −0.2542
  Tes avg_logFC: −0.2663
  Tgfbi avg_logFC: −0.2874
  Tgm2 avg_logFC: −0.345
  Timp1 avg_logFC: −0.3922
  Ywhaz avg_logFC: −0.3465
  Zeb2 avg_logFC: −0.2704
  Zfp36l2 avg_logFC: −0.2732
[2]
  AF251705 avg_logFC: 0.2639
  Al607873 avg_logFC: 0.2786
  Apoe avg_logFC: 0.569
  Arl5c avg_logFC: 0.2656
  Bst2 avg_logFC: 0.2961
  C1qa avg_logFC: 0.4214
  C1qb avg_logFC: 0.5188
  C1qc avg_logFC: 0.4208
  Ccrl2 avg_logFC: 0.3263
  Cd14 avg_logFC: 0.2715
  Cd48 avg_logFC: 0.2715
  Cfh avg_logFC: 0.2625
  Chil3 avg_logFC: 1.253
  Ckb avg_logFC: 0.2847
  Cst3 avg_logFC: 0.3446
  Dpep2 avg_logFC: 0.3725
  Fcer1g avg_logFC: 0.3137
  Fcrls avg_logFC: 0.5638
  Gdf3 avg_logFC: 0.2851
  Gm10076 avg_logFC: 0.3757
  Gm10222 avg_logFC: 0.2577
  H2-D1 avg_logFC: 0.2808
  Hint1 avg_logFC: 0.2548
  Id3 avg_logFC: 0.2699
  Ifi27l2a avg_logFC: 0.5245
  Ifitrn2 avg_logFC: 0.374
  Ifitrn3 avg_logFC: 0.2755
  Itga6 avg_logFC: 0.3437
  Itm2b avg_logFC: 0.4104
  Lrg1 avg_logFC: 0.3663
  Ly6c2 avg_logFC: 0.2657
  Lyz2 avg_logFC: 0.2885
  Mgl2 avg_logFC: 0.5712
  Mt1 avg_logFC: 0.4006
  Pf4 avg_logFC: 0.4715
  Rgs10 avg_logFC: 0.2599
  Rpl3 avg_logFC: 0.278
  Rpl9 avg_logFC: 0.2585
  Rpl21 avg_logFC: 0.2567
  Rpl29 avg_logFC: 0.2548
  Rplp0 avg_logFC: 0.333
  Rps2 avg_logFC: 0.2742
  Rps11 avg_logFC: 0.2704
  Rps20 avg_logFC: 0.2922
  S100a8 avg_logFC: 0.7858
  Thbs1 avg_logFC: 0.3189
  Trem2 avg_logFC: 0.4831
  Tspo avg_logFC: 0.2604
CD68+ cells, Genes up-regulated upon E2 treatment, first Tmem176 line
  Tmem176 avg_logFC: 0.3209
CD68+ cells, Genes up-regulated upon E2 treatment, second Tmem176 line
  Tmem176 avg_logFC: 0.3394
E2 group
  inflammation/chemokine genes (Itm2b, C1q) and M2 macrophage markers (Tspo, Vegfa, Tgm2) in CD68+ cells: upregulated
E2 treated tumors
  TAM markers (Trem2, Apoe, Thbs1, Spp1) in CD68+ monocyte/TAM population: expressed
E2 vs placebo
  CD68+ monocytes/TAMs clusters: expansion and significant changes in gene expression
  cluster 1 (M1-like TAMs): remained unchanged
  cluster 3 (inflammatory monocytes): increased
  cluster 8: expansion
  cluster 9 (immune-suppressive phenotype): significant expansion
  cluster 15 (M1-like TAMs): decreased
  cluster 16 (patrolling tissue resident monocytes): increased
  cluster 22: remained unchanged
  cluster 30: expansion
  percentage of Ly6C^hi monocytes (cluster 2): remained the same
